Laboratory results taken from patent publication US8299262B2, “Pyridylmethyl-sulfonamide compounds” (BASF SE, priority 2007, dated 2012).
Read-outs that look alike come from different tables or passages of the source.

Experiments:
[1] = test system: Septoria glycines; test: Microtiter test, Septoria glycines (Use Example 7); assay type: cell-based; conditions: 125 ppm; control =100%, day 7
[2] = test system: Alternaria solani; test: Synergistic mixtures, microtiter test, early blight pathogen Alternaria solani (Use Example 24); assay type: cell-based; conditions: single compound, 0.063 ppm
[3] = test system: Fusarium culmorum; test: Synergistic mixtures, microtiter test, Fusarium culmorum (Use Example 27); assay type: cell-based; conditions: single compound, 16 ppm
[4] = test system: Pyrenophora teres; test: Synergistic mixtures, microtiter test, net blotch pathogen Pyrenophora teres (Use Example 29); assay type: cell-based; conditions: single compound
[5] = test system: Gaeumannomyces graminis; test: Synergistic mixtures, microtiter test, Gaeumannomyces graminis (Use Example 30); assay type: cell-based; conditions: single compound
[6] = test system: Thielaviopsis basicola; test: Synergistic mixtures, microtiter test, Thielaviopsis basicola (Use Example 31); assay type: cell-based; conditions: single compound
[7] = test system: Pyricularia oryzae; assay type: cell-based; conditions: single compound
[8] = test system: Septoria tritici; test: Synergistic mixtures, microtiter test, leaf blotch pathogen Septoria tritici (Use Example 26); assay type: cell-based; conditions: single compound, 4 ppm
[9] = test system: Colletotrichum truncatum; test: Synergistic mixtures, microtiter test, Colletotrichum truncatum (Use Example 28); assay type: cell-based; conditions: single compound, 16 ppm
[10] = test system: Puccinia recondita; test: Synergistic mixtures, greenhouse, preventative control of brown rust on wheat caused by Puccinia recondita (Use Example 34); assay type: in vivo; conditions: single compound, untreated control 90% disease
Experimental: These percentages were converted into efficacies. An efficacy of 0 means that the growth level of the pathogens corresponds to that of the untreated control; an efficacy of 100 means that the pathogens were not growing.
The expected efficacies of active compound mixtures were determined using Colby's formula [R. S. Colby, Calculating synergistic and antagonistic responses of herbicide combinations, Weeds 15, 20-22 (1967)] and compared with the observed efficacies. E=x+y−x·y/100 Colby's formula • E expected efficacy, expressed in % of the untreated control, when using the mixture of the compounds A and B at the concentration a and b • x efficacy, expressed in % of the untreated control, when using compound A at a concentration of a • y efficacy, expressed in % of the untreated control, when using compound B at a concentration of b A) Microtiter Tests
The spray solutions were prepared in several steps:
The stock solution were prepared as follows: a mixture of acetone and/or dimethylsulfoxide and the wetting agent/emulsifier Wettol, which is based on ethoxylated alkylphenoles, in a relation (volume) solvent-emulsifier of 99 to 1 was added to 25 mg of the compound to give a total of 10 ml. Water was then added to total volume of 100 ml.
This stock solution was diluted with the described solvent-emulsifier-water mixture to the given concentration. The compounds pyraclostrobin, boscalid and epoxiconazole were used as commercial finished formulations and diluted with water to the stated concentration of the active compound.
The first two developed leaves of pot-grown wheat seedling were sprayed to run-off with an aqueous suspension, containing the concentration of active ingredient or their mixture as described below. The next day the plants were inoculated with spores of Puccinia recondita. To ensure the success the artificial inoculation, the plants were transferred to a humid chamber without light and a relative humidity of 95 to 99% and at temperatures between 20 and 24° C. for 24 h. Then, the plants were cultivated for 6 days in a greenhouse chamber at 20 to 24° C. and a relative humidity between 65 and 70%. The extent of fungal attack on the leaves was visually assessed as % diseased leaf area.

[11] = test system: Verticillium dahliae; conditions: single compound, 4 ppm
[12] = test system: Fusarium oxysporum; conditions: single compound, 16 ppm

Structure (SMILES) | relative growth of the pathogen [1] | Observed efficacy (%) [2] [%] | Observed efficacy (%) [3] [%] | Observed efficacy (%) ([4]; 0.25 ppm) | Observed efficacy (%) ([4]; 1 ppm) | Observed efficacy (%) ([5]; 0.063 ppm) | Observed efficacy (%) ([6]; 4 ppm) | Observed efficacy (%) ([6]; 16 ppm) | Observed efficacy (%) ([7]; 0.063 ppm) | Observed efficacy (%) ([7]; 0.25 ppm) | Observed efficacy (%) [8] [%] | Observed efficacy (%) [9] [%] | Observed efficacy (%) ([5]; 0.016 ppm) | Observed efficacy (%) ([6]; 1 ppm) | Observed efficacy (%) ([10]; 4 ppm) | Observed efficacy (%) ([10]; 16 ppm) | Observed efficacy (%) [11] [%] | Observed efficacy (%) [12] [%]
COc1cnccc1CNS(=O)(=O)c1ccc(Oc2ccccn2)cc1 [Example 8] | at most 25% | 3 | 0 | 0 | 9 | 0 | 11 | 6 |  |  |  |  |  |  |  |  |  | 
Cc1nccc(CNS(=O)(=O)c2ccc(Oc3ncc(C(F)(F)F)cc3Cl)cc2)c1C [Example 27] |  |  | 0 |  | 31 |  | 21 |  | 65 | 65 | 47 | 45 | 58 | 1 | 0 | 22 | 56 | 13
